Laboratory results: patent US20260174878A1, “IRAK4 DEGRADATION AGENT AND USE THEREOF” (LEADINGTAC PHARMACEUTICAL (SHAOXING) CO., LTD., priority 2022, published 2026)

Biological target: T1, IRAK4 protein in normal human PBMCs (Homo sapiens, UniProt Q9NWZ3)
T1 construct: host or cells: normal human PBMCs
T1 sequence (Q9NWZ3 1-460): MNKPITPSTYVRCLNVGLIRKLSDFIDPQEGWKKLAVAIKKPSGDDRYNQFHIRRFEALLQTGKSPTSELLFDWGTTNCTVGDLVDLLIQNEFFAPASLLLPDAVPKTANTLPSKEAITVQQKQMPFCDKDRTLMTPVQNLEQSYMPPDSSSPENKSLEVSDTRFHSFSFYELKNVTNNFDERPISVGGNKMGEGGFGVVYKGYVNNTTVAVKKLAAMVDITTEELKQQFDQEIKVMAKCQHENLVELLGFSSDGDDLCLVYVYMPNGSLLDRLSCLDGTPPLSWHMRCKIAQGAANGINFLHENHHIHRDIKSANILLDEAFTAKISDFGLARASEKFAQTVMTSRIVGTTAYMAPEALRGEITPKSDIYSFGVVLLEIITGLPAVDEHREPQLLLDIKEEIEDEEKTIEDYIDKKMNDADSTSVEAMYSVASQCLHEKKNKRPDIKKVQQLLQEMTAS
Assay: Degradation of IRAK4 protein in normal human PBMCs (AlphaLISA)
Type: cell-based
Conditions: 24 h incubation
Experimental: The cryopreserved normal human PBMCs (Milestone, PB010C) were thawed and resuspended in RPMI 1640 medium (Gibco, A1049101) supplemented with 10% fetal bovine serum (Gibco, 10099141), 100 U/mL penicillin, and 100 µg/mL streptomycin (Gibco, 15140122). After 0.95 mL of cells were plated in each well of a 24-well cell culture plate, 50 µL of diluted compound solution was added to corresponding wells with cells, such that the final concentration of the compound fell within the range of 0.01-3000 nM. The final concentration of DMSO was 0.25%. After the compound-treated cell plate was incubated in an incubator at 37° C. with 5% CO2 for 24 h, the cells were collected into 1.5 mL centrifuge tubes and centrifuged at 1000 rpm at 4° C. for 5 min. The cell pellets were washed twice with 1×DPBS. The resuspended cells were lysed with 100 μL of lysis buffer, left to stand on ice for 30 min, and then centrifuged at 14000 g at 4° C. for 10 min. The samples of the cell lysate supernatant after centrifugation were cryopreserved at −80° C. before testing. The cell lysis buffer was a Western and IP cell lysis buffer (Beyotime, P0013) supplemented with 1 mM phenylmethylsulfonyl fluoride and a protease inhibitor cocktail (Beyotime, P1008).
The total protein concentrations of the cell lysate samples were determined using a BCA protein quantification kit (Tiangen, PA115-02).
The prepared PBMC lysate samples were assayed for IRAK4 concentrations using a human IRAK4 AlphaLISA assay kit (PerkinElmer, AL3117C) to determine the degradation effects of the compounds on IRAK4. The method is as follows:
5 μL of each of IRAK4 standard solutions with different concentrations and test samples of cell lysate supernatant were added to a white 384-well plate (PerkinElmer, 6007299), and then 10 μL of 5× anti-IRAK4 […] beads was added to each well (final concentration of 10 μg/mL). The plate was incubated at room temperature for 30 min. Then 10 μL of 5× biotin-labeled anti-IRAK4 antibody was added to each well (final concentration of 1 nM), and the plate was incubated at room temperature for another 60 min. Finally, 25 μL of 2× streptavidin-labeled donor beads was added to each well (final concentration of 40 μg/mL), and the plate was incubated at room temperature for another 30 min. After the incubation was completed, AlphaLISA signal values were measured on a microplate reader EnVision (PerkinElmer, 2105) in the AlphaScreen standard mode. A standard curve was plotted from the AlphaLISA signal values of the IRAK4 standard solutions with different concentrations, and the IRAK4 concentration of each cell lysate supernatant was determined according to the corresponding concentrations on the standard curve for the AlphaLISA signal values of the test samples and by performing corresponding correction on the total protein concentration of each sample obtained by BCA quantification. The degradation rates for the compounds at each concentration were calculated by comparing the IRAK4 concentration with that of the control group. Then non-linear curve fittings for logarithmic concentration-inhibition rate were performed using GraphPad Prism 8, and the DC50 and Dmax values of the compound were obtained.

| Compound | DC50 | Dmax |
| --- | --- | --- |
| O=C1CCN(c2cc(C(=O)N3CCC4(CCC(CN5CCC(n6cc(NC(=O)c7cnn8ccc(N9C[C@H]%10C[C@@H]9CO%10)nc78)c(C(F)F)n6)CC5)CC4)CC3)ccc2Cl)C(=O)N1 [Example 1, 5-((1R,4R)-2-oxa-5-azabicyclo[2.2.1]heptan-5-yl)-N-(1-(1-((3-(4-chloro-3-(2,4-dioxotetrahydropyrimidin-1(2H)-yl)benzoyl)-3-azaspiro[5.5]undecan-9-yl)methyl)piperidin-4-yl)-3-(difluoromethyl)-1H-pyrazol-4-yl)pyrazolo[1,5-a]pyrimidine-3-carboxamide] | 1.28 nM | 99% |
| O=C1CCN(c2cc(C(=O)N3CCC4(CCN(C[C@H]5CC[C@H](n6cc(NC(=O)c7cnn8ccc(N9C[C@H]%10C[C@@H]9CO%10)nc78)c(C(F)F)n6)CC5)CC4)CC3)ccc2Cl)C(=O)N1 [Example 2, 5-((1R,4R)-2-oxa-5-azabicyclo[2.2.1]heptan-5-yl)-N-(1-((1r,4R)-4-((9-(4-chloro-3-(2,4-dioxotetrahydropyrimidin-1(2H)-yl)benzoyl)-3,9-diazaspiro[5.5]undecan-3-yl)methyl)cyclohexyl)-3-(difluoromethyl)-1H-pyrazol-4-yl)pyrazolo[1,5-a]pyrimidine-3-carboxamide] | 1.56 nM | 99.1% |
| COc1ccc(C(=O)N2CCC3(CCC(CN4CCC(n5cc(NC(=O)c6cnn7ccc(N8C[C@H]9C[C@@H]8CO9)nc67)c(C(F)F)n5)CC4)CC3)CC2)cc1N1CCC(=O)NC1=O [Example 3, 5-((1R,4R)-2-oxa-5-azabicyclo[2.2.1]heptan-5-yl)-N-(3-(difluoromethyl)-1-(1-((3-(3-(2,4-dioxotetrahydropyrimidin-1(2H)-yl)-4-methoxybenzoyl)-3-azaspiro[5.5]undecan-9-yl)methyl)piperidin-4-yl)-1H-pyrazol-4-yl)pyrazolo[1,5-a]pyrimidine-3-carboxamide] | 0.28 nM | 97.7% |
| O=C1CCN(c2cc(C(=O)N3CCC4(CCC(CN5CCC(n6cc(NC(=O)c7cnn8ccc(N9CCOCC9)nc78)c(C(F)F)n6)CC5)CC4)CC3)ccc2Cl)C(=O)N1 [Example 4, N-(1-(1-((3-(4-chloro-3-(2,4-dioxotetrahydropyrimidin-1(2H)-yl)benzoyl)-3-azaspiro[5.5]undecan-9-yl)methyl)piperidin-4-yl)-3-(difluoromethyl)-1H-pyrazol-4-yl)-5-morpholinopyrazolo[1,5-a]pyrimidine-3-carboxamide] | 0.39 nM | 97.2% |
| O=C1CCN(c2cc(C(=O)N3CCC4(CCC(CN5CCC(n6cc(NC(=O)c7cnn8ccc(N9CCNCC9)nc78)c(C(F)F)n6)CC5)CC4)CC3)ccc2Cl)C(=O)N1 [Example 5, N-(1-(1-((3-(4-chloro-3-(2,4-dioxotetrahydropyrimidin-1(2H)-yl)benzoyl)-3-azaspiro[5.5]undecan-9-yl)methyl)piperidin-4-yl)-3-(difluoromethyl)-1H-pyrazol-4-yl)-5-(piperazin-1-yl)pyrazolo[1,5-a]pyrimidine-3-carboxamide] | 0.6 nM | 98.8% |
| COc1ccc(C(=O)N2CCC3(CCC(CN4CCC(n5cc(NC(=O)c6cnn7ccc(N8CC9CCC(C8)O9)nc67)c(C(F)F)n5)CC4)CC3)CC2)cc1N1CCC(=O)NC1=O [Example 6, 5-(8-oxa-3-azabicyclo[3.2.1]octan-3-yl)-N-(3-(difluoromethyl)-1-(1-((3-(3-(2,4-dioxotetrahydropyrimidin-1(2H)-yl)-4-methoxybenzoyl)-3-azaspiro[5.5]undecan-9-yl)methyl)piperidin-4-yl)-1H-pyrazol-4-yl)pyrazolo[1,5-a]pyrimidine-3-carboxamide] | 0.56 nM | 97.9% |
| O=C1CCN(c2cc(C(=O)N3CCC(CCCCN4CCC(n5cc(NC(=O)c6cnn7ccc(N8C[C@H]9C[C@@H]8CO9)nc67)c(C(F)F)n5)CC4)CC3)ccc2Cl)C(=O)N1 [Example 7, 5-((1R,4R)-2-oxa-5-azabicyclo[2.2.1]heptan-5-yl)-N-(1-(1-(4-(1-(4-chloro-3-(2,4-dioxotetrahydropyrimidin-1(2H)-yl)benzoyl)piperidin-4-yl)butyl)piperidin-4-yl)-3-(difluoromethyl)-1H-pyrazol-4-yl)pyrazolo[1,5-a]pyrimidine-3-carboxamide] | 0.39 nM | 98.1% |
| O=C1CCN(c2cc(C(=O)N3CCC4(CCC(CN5CCC(n6cc(NC(=O)c7cnn8ccc(N9CCOCC9)nc78)c(C(F)F)n6)CC5)CC4)CC3)ccc2F)C(=O)N1 [Example 12, N-(3-(difluoromethyl)-1-(1-((3-(3-(2,4-dioxotetrahydropyrimidin-1(2H)-yl)-4-fluorobenzoyl)-3-azaspiro[5.5]undecan-9-yl)methyl)piperidin-4-yl)-1H-pyrazol-4-yl)-5-morpholinopyrazolo[1,5-a]pyrimidine-3-carboxamide] | 0.37 nM | 98% |
| Cc1ccc(C(=O)N2CCC3(CCC(CN4CCC(n5cc(NC(=O)c6cnn7ccc(N8CCOCC8)nc67)c(C(F)F)n5)CC4)CC3)CC2)cc1N1CCC(=O)NC1=O [Example 13, N-(3-(difluoromethyl)-1-(1-((3-(3-(2,4-dioxotetrahydropyrimidin-1(2H)-yl)-4-methylbenzoyl)-3-azaspiro[5.5]undecan-9-yl)methyl)piperidin-4-yl)-1H-pyrazol-4-yl)-5-morpholinopyrazolo[1,5-a]pyrimidine-3-carboxamide] | 0.21 nM | 98.2% |
| COc1ccc(C(=O)N2CCC3(CCC(CCN4CCC(n5cc(NC(=O)c6cnn7ccc(N8CCOCC8)nc67)c(C(F)F)n5)CC4)CC3)CC2)cc1N1CCC(=O)NC1=O [Example 16, N-(3-(difluoromethyl)-1-(1-(2-(3-(3-(2,4-dioxotetrahydropyrimidin-1(2H)-yl)-4-methoxybenzoyl)-3-azaspiro[5.5]undecan-9-yl)ethyl)piperidin-4-yl)-1H-pyrazol-4-yl)-5-morpholinopyrazolo [1,5-a]pyrimidine-3-carboxamide] | 0.7 nM | 98.4% |
| O=C1CCN(c2cc(C(=O)N3CCC4(CCC(CCN5CCC(n6cc(NC(=O)c7cnn8ccc(N9CCOCC9)nc78)c(C(F)F)n6)CC5)CC4)CC3)ccc2Cl)C(=O)N1 [Example 20, N-(1-(1-(2-(3-(4-chloro-3-(2,4-dioxotetrahydropyrimidin-1(2H)-yl)benzoyl)-3-azaspiro[5.5]undecan-9-yl)ethyl)piperidin-4-yl)-3-(difluoromethyl)-1H-pyrazol-4-yl)-5-morpholinopyrazolo[1,5-a]pyrimidine-3-carboxamide] | 0.72 nM | 95.7% |
| Cc1ccc(C(=O)N2CCC3(CCC(CN4CCC(n5cc(NC(=O)c6cnn7ccc(N8C[C@H]9C[C@@H]8CO9)nc67)c(C(F)F)n5)CC4)CC3)CC2)cc1N1CCC(=O)NC1=O [Example 21, 5-((1R,4R)-2-oxa-5-azabicyclo[2.2.1]heptan-5-yl)-N-(3-(difluoromethyl)-1-(1-((3-(3-(2,4-dioxotetrahydropyrimidin-1(2H)-yl)-4-methylbenzoyl)-3-azaspiro[5.5]undecan-9-yl)methyl)piperidin-4-yl)-1H-pyrazol-4-yl)pyrazolo[1,5-a]pyrimidine-3-carboxamide] | 0.45 nM | 96.2% |
